According to US11208405B2, “Pyrrole derivatives as PLK1 inhibitors” (SENTINEL ONCOLOGY LIMITED, priority 2017, dated 2021):
Structures can show the parent of a compound that is named as a salt.

Legend:
[1] = tested on: glioblastoma cell line 907279; assay: Glioblastoma cancer cell viability, cell line 907279; assay type: cell-based
Protocol: (§1) Assay to Measure the Effects of Compounds of the Invention on Glioblastoma Cancer Cell Viability
(§2) The compound of Example 33 was tested for inhibitory activity against the glioblastoma cell lines in Table 7 below.

[2] = tested on: glioblastoma cell line 905984; assay: Glioblastoma cancer cell viability, cell line 905984; assay type: cell-based
Protocol: as §1, §2

[3] = tested on: phospho-histone H3; assay: Western blotting of tumours 24 hours after a single dose; assay type: in vivo; conditions: mice with established tumours
Protocol: In a separate experiment, eight mice with established tumours were treated with the compound of Example 33 and euthanised 24 hours after administration of a single dose.

[4] = target: T1, WEE2 (Homo sapiens, UniProt P0C1S8); assay: Kinase selectivity assay (DiscoverX KinomeScreen), WEE2; assay type: binding; conditions: WEE2, 5 μM; read-out: % Control
T1 construct: purchased DiscoverX
Protocol: (§3) The compound of Example 33 was tested for off-target activity against a panel of fifty five kinases bearing functional or structural similarity to PLK1 at a concentration of 5 μM using the DiscoverX KinomeScreen assay.

[5] = target: T2, WNK2 (Homo sapiens, UniProt Q9Y3S1); assay: Kinase selectivity assay (DiscoverX KinomeScreen), WNK2; assay type: binding; conditions: WNK2, 5 μM; read-out: % Control
T2 construct: purchased DiscoverX
Protocol: as §3

[6] = tested on: HeLa cells; assay: Arresting cells in mitosis (Mitotic Index, phosphorylated Histone H3 immunofluorescence); assay type: cell-based; conditions: Homo sapiens, HeLa; separate experiment; read-out: EC50 in the mitotic arrest assay
How it was run: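 HeLa cells exposed 24 h to 2-fold serial compound dilutions, in triplicate, then formaldehyde-fixed and immunostained for phospho-histone H3 and MPM2 with Hoechst counterstain. High-content imaging gave the mitotic index (% pH3-positive cells); EC50 fitted from MI versus concentration.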

T2 sequence (Q9Y3S1 whole entry): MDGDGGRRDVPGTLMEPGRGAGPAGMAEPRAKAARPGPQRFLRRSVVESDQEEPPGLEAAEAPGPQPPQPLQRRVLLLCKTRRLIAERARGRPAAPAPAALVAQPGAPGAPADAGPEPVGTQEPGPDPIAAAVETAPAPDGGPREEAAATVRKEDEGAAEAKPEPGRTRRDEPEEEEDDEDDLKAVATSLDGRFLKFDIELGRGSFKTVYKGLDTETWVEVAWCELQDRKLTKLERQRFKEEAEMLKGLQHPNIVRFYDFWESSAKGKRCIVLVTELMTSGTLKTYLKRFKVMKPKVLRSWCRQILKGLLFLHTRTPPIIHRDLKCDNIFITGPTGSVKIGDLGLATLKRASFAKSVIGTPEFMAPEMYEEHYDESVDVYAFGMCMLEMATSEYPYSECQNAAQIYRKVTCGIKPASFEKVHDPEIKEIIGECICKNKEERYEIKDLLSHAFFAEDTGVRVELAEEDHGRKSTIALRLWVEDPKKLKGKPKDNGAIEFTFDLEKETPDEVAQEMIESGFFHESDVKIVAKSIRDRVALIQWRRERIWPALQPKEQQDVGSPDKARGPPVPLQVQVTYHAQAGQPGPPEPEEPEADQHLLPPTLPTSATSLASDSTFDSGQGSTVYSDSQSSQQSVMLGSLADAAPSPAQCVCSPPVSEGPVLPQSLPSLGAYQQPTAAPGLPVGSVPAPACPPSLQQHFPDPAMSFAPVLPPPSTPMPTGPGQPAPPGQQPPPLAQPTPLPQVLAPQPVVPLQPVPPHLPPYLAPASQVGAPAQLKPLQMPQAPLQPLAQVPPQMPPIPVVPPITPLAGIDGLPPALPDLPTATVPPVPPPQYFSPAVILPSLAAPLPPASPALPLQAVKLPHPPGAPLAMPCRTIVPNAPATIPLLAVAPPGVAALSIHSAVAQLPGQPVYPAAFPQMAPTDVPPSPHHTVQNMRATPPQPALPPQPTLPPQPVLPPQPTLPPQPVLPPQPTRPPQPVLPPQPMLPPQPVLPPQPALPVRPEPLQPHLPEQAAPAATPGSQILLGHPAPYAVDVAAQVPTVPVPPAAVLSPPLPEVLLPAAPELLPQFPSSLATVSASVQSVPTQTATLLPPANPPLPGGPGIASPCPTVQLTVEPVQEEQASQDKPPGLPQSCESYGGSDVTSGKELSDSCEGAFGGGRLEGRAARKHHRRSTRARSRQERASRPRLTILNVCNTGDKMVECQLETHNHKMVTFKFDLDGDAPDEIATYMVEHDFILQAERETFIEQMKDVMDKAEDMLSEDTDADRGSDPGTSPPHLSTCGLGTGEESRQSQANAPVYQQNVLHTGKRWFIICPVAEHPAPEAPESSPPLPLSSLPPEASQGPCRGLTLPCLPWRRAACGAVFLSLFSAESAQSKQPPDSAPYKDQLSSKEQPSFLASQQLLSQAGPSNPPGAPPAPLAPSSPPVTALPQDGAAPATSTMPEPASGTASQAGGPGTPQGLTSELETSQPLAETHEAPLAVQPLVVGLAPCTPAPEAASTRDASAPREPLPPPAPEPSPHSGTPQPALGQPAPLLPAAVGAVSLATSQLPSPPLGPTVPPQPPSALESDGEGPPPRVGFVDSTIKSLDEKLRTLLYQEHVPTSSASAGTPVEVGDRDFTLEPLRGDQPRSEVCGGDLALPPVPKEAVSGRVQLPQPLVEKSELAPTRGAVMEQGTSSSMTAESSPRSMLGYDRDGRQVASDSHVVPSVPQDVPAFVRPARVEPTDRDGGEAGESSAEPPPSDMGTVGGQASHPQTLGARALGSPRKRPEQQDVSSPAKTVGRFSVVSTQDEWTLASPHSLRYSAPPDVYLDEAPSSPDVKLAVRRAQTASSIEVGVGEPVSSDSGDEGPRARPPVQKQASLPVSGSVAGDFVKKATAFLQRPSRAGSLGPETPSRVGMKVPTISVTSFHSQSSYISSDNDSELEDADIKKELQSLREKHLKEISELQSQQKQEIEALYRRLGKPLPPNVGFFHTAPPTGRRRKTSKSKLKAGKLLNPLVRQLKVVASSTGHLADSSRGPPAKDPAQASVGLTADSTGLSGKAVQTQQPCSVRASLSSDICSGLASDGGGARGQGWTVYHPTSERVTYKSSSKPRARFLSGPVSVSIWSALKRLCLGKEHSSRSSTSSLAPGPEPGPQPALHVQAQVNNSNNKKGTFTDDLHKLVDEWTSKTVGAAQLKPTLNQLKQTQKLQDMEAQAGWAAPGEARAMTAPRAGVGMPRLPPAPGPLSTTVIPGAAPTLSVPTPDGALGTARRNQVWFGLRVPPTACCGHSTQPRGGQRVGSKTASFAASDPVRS
T1 sequence (P0C1S8 whole entry): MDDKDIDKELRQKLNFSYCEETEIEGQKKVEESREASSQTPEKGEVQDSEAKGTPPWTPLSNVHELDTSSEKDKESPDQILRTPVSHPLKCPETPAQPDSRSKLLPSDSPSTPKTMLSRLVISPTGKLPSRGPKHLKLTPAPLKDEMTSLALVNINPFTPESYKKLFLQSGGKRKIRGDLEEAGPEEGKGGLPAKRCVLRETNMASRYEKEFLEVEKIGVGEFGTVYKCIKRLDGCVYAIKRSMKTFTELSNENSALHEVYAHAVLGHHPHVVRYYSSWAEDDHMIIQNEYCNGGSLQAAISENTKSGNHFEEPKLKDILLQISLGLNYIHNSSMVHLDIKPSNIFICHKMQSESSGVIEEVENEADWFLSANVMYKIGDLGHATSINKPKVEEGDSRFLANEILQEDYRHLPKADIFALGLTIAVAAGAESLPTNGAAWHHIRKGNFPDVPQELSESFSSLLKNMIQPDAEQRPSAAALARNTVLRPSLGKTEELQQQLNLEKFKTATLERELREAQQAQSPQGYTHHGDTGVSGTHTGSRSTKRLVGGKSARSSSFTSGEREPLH

`CN(C)CCNC(=O)c1ccc(-c2ccc(-c3ccc(Cl)cc3)n2-c2ccccc2C(F)(F)F)cc1` [Example 33, 4-[5-(4-chlorophenyl)-1-[2-(trifluoromethyl)phenyl]pyrrol-2-yl]-N-[2-(dimethylamino)ethyl]benzamide Hydrochloride] was tested, and the IC50 [1] was 27.8 µM, the IC50 [2] was 0.241 µM and the “phospho-histone H3 in tumours (Western blotting)” value [3] was “clear induction of phospho-histone H3”. The remaining activity at 5 µM [4] was 92%, the remaining activity at 5 µM [5] was 100% and the EC50 [6] was 0.061 ± 0.01 µM.
